In general, inhibition refers to the change of the read-out against control, counted positive when it falls. Low values mean a response near the control, high ones a response far below the control. In general, IC50 refers to the concentration that gives 50% inhibition. A low value points to greater potency in that assay.

The target in data set [1] is T1, Proteasome Macropain subunit MB1 (Homo sapiens) (UniProt P28074).
T1 sequence (whole entry): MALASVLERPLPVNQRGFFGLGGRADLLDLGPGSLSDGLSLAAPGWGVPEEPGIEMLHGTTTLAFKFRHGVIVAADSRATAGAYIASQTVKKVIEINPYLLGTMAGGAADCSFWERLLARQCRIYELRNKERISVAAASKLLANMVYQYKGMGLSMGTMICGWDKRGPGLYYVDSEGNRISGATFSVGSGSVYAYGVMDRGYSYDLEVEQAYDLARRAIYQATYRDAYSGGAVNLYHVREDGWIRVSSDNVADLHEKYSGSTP
Put plainly: Inhibition of chymotrypsin-like activity of human 20S proteasome at 100 nM using Suc-Leu-Leu-Val-Tyr-AMC as substrate by fluorescence assay relative to control.

The test system of data set [2] is MDA-MB-231. The experiment in a line: Antiproliferative activity against human MDA-MB-231 cells after 72 hrs by SRB assay. It counts as functional, cell-based. For orientation: In SRB staining, fixed cells bind dye roughly in proportion to their protein.
The test system of data set [3] is MCF7. Put plainly: Antiproliferative activity against human MCF7 cells after 72 hrs by SRB assay. It counts as functional, cell-based.
For data set [4], the system named is A549. Put plainly: Antiproliferative activity against human A549 cells after 72 hrs by SRB assay. In kind it is functional, cell-based.
A short description of data set [5]: Metabolic stability in Sprague-Dawley rat liver microsomes assessed as parent compound remaining at […] preincubated for 5 mins followed by NADPH addition measured after 40 mins by HPLC analysis. In kind it is ADME, microsome. As to conditions: read-out: Stability. (In general: Liver microsomes are a subcellular fraction often used to study metabolism.)
In data set [6] the target is T1, Proteasome Macropain subunit MB1 (Homo sapiens). Put plainly: Inhibition of chymotrypsin-like activity of human 20S proteasome at 10 nM using Suc-Leu-Leu-Val-Tyr-AMC as substrate by fluorescence assay relative to control.

Molecules are shown by their SMILES.

Take `CC(=O)Nc1ccc(S(=O)(=O)Nc2cc(SCCC(=O)N[C@@H](CC(C)C)B(O)O)c(O)c3ccccc23)cc1`: in data set [1], the inhibition worked out at 38.4%. The half-inhibitory concentration (IC50) in data set [2] (Homo sapiens, MDA-MB-231, 72 h) is 2.12 µM; in data set [3] (Homo sapiens, MCF7, 72 h), 6.62 µM.

In data set [1], `Cc1ccc(S(=O)(=O)Nc2cc(SC(C)C(=O)N[C@@H](CC(C)C)B(O)O)c(O)c3ccccc23)cc1` (stereo not given in full) gave an inhibition of 35.5%. For the same compound, the IC50 in data set [2] (Homo sapiens, MDA-MB-231, 72 h) stood at 8.13 µM; in data set [3] (Homo sapiens, MCF7, 72 h), 8.61 µM.

`CC(C)C[C@H](NC(=O)CSc1cc(NS(=O)(=O)c2cccs2)c2ccccc2c1O)B(O)O` registered an inhibition in data set [1] of 33.3%. Further, the IC50 in data set [2] (Homo sapiens, MDA-MB-231, 72 h) was determined as 6.52 µM; in data set [3] (Homo sapiens, MCF7, 72 h) it was 9.45 µM.

`CC(C)C[C@H](NC(=O)C(C)Sc1cc(NS(=O)(=O)c2ccc(Cl)cc2)c2ccccc2c1O)B(O)O` (stereo in doubt; 3c) [listing 1 of 2 here] yielded an inhibition in data set [1] of 41.5%.

Consider `CC(C)C[C@H](NC(=O)C(C)Sc1cc(NS(=O)(=O)c2ccccc2)c2ccccc2c1O)B(O)O` (stereo in doubt; 3b) [listing 1 of 2 here], for which the IC50 in data set [4] was 4.48 µM; in data set [2] (mda-mb-231), 11.1 µM; in data set [3] (Homo sapiens, MCF7, 72 h), 16.5 µM.

`CC(C)C[C@H](NC(=O)CCSc1cc(NS(=O)(=O)c2cccs2)c2ccccc2c1O)B(O)O` showed an inhibition in data set [1] of 38.3%. Moreover, the IC50 was 4.45 µM in data set [2] (Homo sapiens, MDA-MB-231, 72 h) and 6.47 µM in data set [3] (Homo sapiens, MCF7, 72 h).

On to `Cc1ccc(S(=O)(=O)Nc2cc(SCC(=O)N[C@@H](CC(C)C)B(O)O)c(O)c3ccccc23)cc1`, for which the inhibition in data set [1] came to 36.6%. In addition, the IC50 in data set [2] (Homo sapiens, MDA-MB-231, 72 h) is 14 µM; in data set [3] (Homo sapiens, MCF7, 72 h) it was 12.8 µM.

As to `CC(C)C[C@H](NC(=O)C(C)Sc1cc(NS(=O)(=O)c2ccc(Cl)cc2)c2ccccc2c1O)B(O)O` (stereo in doubt; 3c-1) [listing 1 of 2 here], the inhibition in data set [1] was 39.4%.

Turning to `CC(C)C[C@H](NC(=O)C(C)Sc1cc(NS(=O)(=O)c2ccccc2)c2ccccc2c1O)B(O)O` (stereo in doubt; 3b-1) [listing 1 of 2 here], the inhibition in data set [1] came out at 25.4%.

In turn, `CC(C)C[C@H](NC(=O)CCSc1cc(NS(=O)(=O)c2ccccc2)c2ccccc2c1O)B(O)O` showed an inhibition in data set [1] of 45.6%. The concentration for half-maximal inhibition (IC50) in data set [2] (Homo sapiens, MDA-MB-231, 72 h) is 4.2 µM; in data set [3] (Homo sapiens, MCF7, 72 h) it was 7.46 µM.

In data set [1], `CC(=O)Nc1ccc(S(=O)(=O)Nc2cc(SCC(=O)N[C@@H](CC(C)C)B(O)O)c(O)c3ccccc23)cc1` had an inhibition of 40.8%. Besides, the IC50 was determined as 4.45 µM in data set [2] (Homo sapiens, MDA-MB-231, 72 h) and 8.66 µM in data set [3] (Homo sapiens, MCF7, 72 h).

Take `CC(C)C[C@H](NC(=O)C(C)Sc1cc(NS(=O)(=O)c2ccc(Cl)cc2)c2ccccc2c1O)B(O)O` (stereo in doubt; 3c-1) [listing 2 of 2 here]: the concentration for half-maximal inhibition (IC50) in data set [2] (mda-mb-231) was found to be 6.46 µM; in data set [3] (mcf7), 10.7 µM.

In turn, `O=C(O)CSc1cc(NS(=O)(=O)c2cccs2)c2ccccc2c1O` returned an inhibition in data set [1] of 6.86%.

In the case of `CC(C)C[C@H](NC(=O)C(C)Sc1cc(NS(=O)(=O)c2ccccc2)c2ccccc2c1O)B(O)O` (stereo in doubt; 3b-1) [listing 2 of 2 here], the IC50 in data set [2] (mda-mb-231) turned out to be 5.11 µM; in data set [3] (mcf7) it was 11.3 µM.

`CC(C)C[C@H](NC(=O)CSc1cc(NS(=O)(=O)c2ccc(Cl)cc2)c2ccccc2c1O)B(O)O` came in with an inhibition in data set [1] of 45.1%. Also, the IC50 in data set [2] (Homo sapiens, MDA-MB-231, 72 h) is 6.19 µM; in data set [3] (Homo sapiens, MCF7, 72 h), 10.4 µM.

In the case of `CC(C)C[C@H](NC(=O)CCSc1cc(NS(=O)(=O)c2ccc(Cl)cc2)c2ccccc2c1O)B(O)O`, in data set [1], the inhibition amounted to 52.5%. For the same compound, the IC50 in data set [2] (Homo sapiens, MDA-MB-231, 72 h) was 4.09 µM; in data set [3] (Homo sapiens, MCF7, 72 h), 6.91 µM.

In data set [1], `CC(C)C[C@H](NC(=O)C(C)Sc1cc(NS(=O)(=O)c2cccs2)c2ccccc2c1O)B(O)O` (stereo not given in full) came in with an inhibition of 41.1%. Besides, the half-inhibitory concentration (IC50) in data set [2] (Homo sapiens, MDA-MB-231, 72 h) came out at 7.45 µM; in data set [3] (Homo sapiens, MCF7, 72 h), 14.7 µM.

Regarding `CC(C)C[C@H](NC(=O)C(C)Sc1cc(NS(=O)(=O)c2ccccc2)c2ccccc2c1O)B(O)O` (stereo in doubt; 3b) [listing 2 of 2 here], the inhibition in data set [1] came to 22.6%.

In the case of `CC(C)C[C@H](NC(=O)C(C)Sc1cc(NS(=O)(=O)c2ccc(Cl)cc2)c2ccccc2c1O)B(O)O` (stereo in doubt; 3c) [listing 2 of 2 here], the IC50 came out at 16.5 µM in data set [4]; 6.15 µM in data set [2] (Homo sapiens, MDA-MB-231, 72 h); 10.1 µM in data set [3] (Homo sapiens, MCF7, 72 h).

The compound `CC(C)C[C@H](NC(=O)CSc1cc(NS(=O)(=O)c2ccccc2)c2ccccc2c1O)B(O)O` showed an inhibition in data set [1] of 32.5%. Also, the IC50 in data set [2] (Homo sapiens, MDA-MB-231, 72 h) came to 10.6 µM; in data set [3] (Homo sapiens, MCF7, 72 h), 4.16 µM.

Consider `Cc1ccc(S(=O)(=O)Nc2cc(SCCC(=O)N[C@@H](CC(C)C)B(O)O)c(O)c3ccccc23)cc1`, for which the inhibition in data set [1] is 54.2%. For the same compound, the IC50 in data set [2] (Homo sapiens, MDA-MB-231, 72 h) was 6.15 µM; in data set [3] (Homo sapiens, MCF7, 72 h) it was 6.94 µM. Moreover, in data set [5], the remaining at 40 min is 56%.

The compound `CC(=O)Nc1ccc(S(=O)(=O)Nc2cc(SC(C)C(=O)N[C@@H](CC(C)C)B(O)O)c(O)c3ccccc23)cc1` (stereo not given in full) displayed an inhibition in data set [1] of 27.4%. The IC50 was 2.8 µM in data set [2] (Homo sapiens, MDA-MB-231, 72 h) and 8.91 µM in data set [3] (Homo sapiens, MCF7, 72 h).

`CC(C)C[C@H](NC(=O)[C@H](Cc1ccccc1)NC(=O)c1cnccn1)B(O)O` [BORTEZOMIB] returned an inhibition in data set [6] of 51.2%. The IC50 in data set [2] (Homo sapiens, MDA-MB-231, 72 h) worked out at 3.12 µM; in data set [3] (Homo sapiens, MCF7, 72 h), 18.4 µM. Besides, in data set [5], the remaining at 40 min is 30%.

For the compound `C[S+](C)[O-]`, the inhibition in data set [1] was determined as 4.89%.
